# Laboratory results: patent US20230210870A1, “METHODS OF TREATING FEMALE HEALTH CONDITIONS RELATED TO SEX HORMONES” (priority 2020, published 2023)
# Legend:
# [1] = molecular target: T1, α1β1γ2 GABAA receptor (Homo sapiens, UniProt P14867+P18505); experiment: FLIPR modulation of GABA response in cells expressing GABAA receptor subtype; assay type: cell-based; details: in presence of GABA, — = value not measurable
# T1 construct: expressed in transfected cells
# Experimental: (§1) Cells expressing the indicated GABAA receptor subtype were exposed to gamma-aminobutyric acid in the presence of varying concentrations of either CV-10155 or SPNC-019, calcium flux was measured using a fluorometric imaging plate reader (FLIPR), and EC50 values for compounds were determined.
# [2] = molecular target: T2, α1β2γ2 GABAA receptor (Homo sapiens, UniProt P14867+P47870); experiment: as above; assay type: cell-based; details: in presence of GABA, — = value not measurable
# T2 construct: expressed in transfected cells
# Experimental: as §1
# [3] = molecular target: T3, α1β3γ2 GABAA receptor (Homo sapiens, UniProt P14867+P28472); experiment: as above; assay type: cell-based; details: in presence of GABA, — = value not measurable
# T3 construct: expressed in transfected cells
# Experimental: as §1
# [4] = molecular target: T4, α2β1γ2 GABAA receptor (Homo sapiens, UniProt P18505+P47869); experiment: as above; assay type: cell-based; details: in presence of GABA, — = value not measurable
# T4 construct: expressed in transfected cells
# Experimental: as §1
# [5] = molecular target: T5, α2β2γ2 GABAA receptor (Homo sapiens, UniProt P47869+P47870); experiment: as above; assay type: cell-based; details: in presence of GABA, — = value not measurable
# T5 construct: expressed in transfected cells
# Experimental: as §1
# [6] = molecular target: T6, α2β3γ2 GABAA receptor (Homo sapiens, UniProt P28472+P47869); experiment: as above; assay type: cell-based; details: in presence of GABA, — = value not measurable
# T6 construct: expressed in transfected cells
# Experimental: as §1
# [7] = molecular target: T7, α3β1γ2 GABAA receptor (Homo sapiens, UniProt P18505+P34903); experiment: as above; assay type: cell-based; details: in presence of GABA, — = value not measurable
# T7 construct: expressed in transfected cells
# Experimental: as §1
# [8] = molecular target: T8, α3β2γ2 GABAA receptor (Homo sapiens, UniProt P34903+P47870); experiment: as above; assay type: cell-based; details: in presence of GABA, — = value not measurable
# T8 construct: expressed in transfected cells
# Experimental: as §1
# [9] = molecular target: T9, α3β3γ2 GABAA receptor (Homo sapiens, UniProt P28472+P34903); experiment: as above; assay type: cell-based; details: in presence of GABA, — = value not measurable
# T9 construct: expressed in transfected cells
# Experimental: as §1
# [10] = molecular target: T10, α4β1γ2 GABAA receptor (Homo sapiens, UniProt P18505+P48169); experiment: as above; assay type: cell-based; details: in presence of GABA, — = value not measurable
# T10 construct: expressed in transfected cells
# Experimental: as §1
# [11] = molecular target: T11, α4β3γ2 GABAA receptor (Homo sapiens, UniProt P28472+P48169); experiment: as above; assay type: cell-based; details: in presence of GABA, — = value not measurable
# T11 construct: expressed in transfected cells
# Experimental: as §1
# [12] = molecular target: T12, α5β1γ2 GABAA receptor (Homo sapiens, UniProt P18505+P31644); experiment: as above; assay type: cell-based; details: in presence of GABA, — = value not measurable
# T12 construct: expressed in transfected cells
# Experimental: as §1
# [13] = molecular target: T13, α5β2γ2 GABAA receptor (Homo sapiens, UniProt P31644+P47870); experiment: as above; assay type: cell-based; details: in presence of GABA, — = value not measurable
# T13 construct: expressed in transfected cells
# Experimental: as §1
# [14] = molecular target: T14, α5β3γ2 GABAA receptor (Homo sapiens, UniProt P28472+P31644); experiment: as above; assay type: cell-based; details: in presence of GABA, — = value not measurable
# T14 construct: expressed in transfected cells
# Experimental: as §1
# [15] = molecular target: T15, α6β1γ2 GABAA receptor (Homo sapiens, UniProt P18505+Q16445); experiment: as above; assay type: cell-based; details: in presence of GABA, — = value not measurable
# T15 construct: expressed in transfected cells
# Experimental: as §1
# [16] = molecular target: T16, α6β2γ2 GABAA receptor (Homo sapiens, UniProt P47870+Q16445); experiment: as above; assay type: cell-based; details: in presence of GABA, — = value not measurable
# T16 construct: expressed in transfected cells
# Experimental: as §1
# [17] = molecular target: T17, α6β3γ2 GABAA receptor (Homo sapiens, UniProt P28472+Q16445); experiment: as above; assay type: cell-based; details: in presence of GABA, — = value not measurable
# T17 construct: expressed in transfected cells
# Experimental: as §1
# [18] = test system: GABAA receptor subtypes; experiment: FLIPR panel of 18 GABAA receptor subtypes; assay type: cell-based; details: for modulating activity across GABAA receptor subtypes tested: 18 subtypes, FLIPR
# Experimental: as §1
# The results further indicate that the isomeric purity of compositions containing compounds of Formula (I) greatly impacts the utility of such compositions as therapeutic agents.
# [19] = molecular target: T18, α4β3δ GABAA receptor (Homo sapiens, UniProt P28472+P48169); experiment: FLIPR modulation of GABA response in cells expressing GABAA receptor subtype; assay type: cell-based; set-up: expressed in transfected cells; details: in presence of GABA, — = value not measurable
# Experimental: as §1
# [20] = molecular target: picrotoxin binding site of GABAA receptors; details: membranes from cortices of rat brains; Table 1 of WO 2016/061527; read-out: IC50 in the TBPS displacement assay; cited from earlier work
# [21] = molecular target: T2, α1β2γ2 GABAA receptor; details: 10 μM steroid, GABA 2 μM (EC20), LTK cells, Table 2 of WO 2016/061527; cited from earlier work
# [22] = molecular target: T18, α4β3δ GABAA receptor; set-up: expressed in transfected cells; host or cells: CHO cells (transient); details: 10 μM steroid, GABA 2 μM (EC20), CHO cells, Table 2 of WO 2016/061527; cited from earlier work
# T13 sequence (P31644 32-462): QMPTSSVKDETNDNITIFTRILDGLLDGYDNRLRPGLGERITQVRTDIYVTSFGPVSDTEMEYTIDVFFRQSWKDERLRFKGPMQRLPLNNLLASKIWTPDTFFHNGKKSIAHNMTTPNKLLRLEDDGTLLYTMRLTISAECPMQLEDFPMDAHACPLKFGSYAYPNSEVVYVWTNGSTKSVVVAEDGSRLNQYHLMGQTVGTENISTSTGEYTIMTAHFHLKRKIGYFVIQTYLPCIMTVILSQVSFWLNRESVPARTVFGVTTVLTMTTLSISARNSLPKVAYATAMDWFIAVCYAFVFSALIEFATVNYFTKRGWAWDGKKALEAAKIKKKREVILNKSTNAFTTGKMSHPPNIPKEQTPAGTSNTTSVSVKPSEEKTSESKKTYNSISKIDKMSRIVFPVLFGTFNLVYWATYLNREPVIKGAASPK
# T13 sequence (P47870 25-512 limits assumed): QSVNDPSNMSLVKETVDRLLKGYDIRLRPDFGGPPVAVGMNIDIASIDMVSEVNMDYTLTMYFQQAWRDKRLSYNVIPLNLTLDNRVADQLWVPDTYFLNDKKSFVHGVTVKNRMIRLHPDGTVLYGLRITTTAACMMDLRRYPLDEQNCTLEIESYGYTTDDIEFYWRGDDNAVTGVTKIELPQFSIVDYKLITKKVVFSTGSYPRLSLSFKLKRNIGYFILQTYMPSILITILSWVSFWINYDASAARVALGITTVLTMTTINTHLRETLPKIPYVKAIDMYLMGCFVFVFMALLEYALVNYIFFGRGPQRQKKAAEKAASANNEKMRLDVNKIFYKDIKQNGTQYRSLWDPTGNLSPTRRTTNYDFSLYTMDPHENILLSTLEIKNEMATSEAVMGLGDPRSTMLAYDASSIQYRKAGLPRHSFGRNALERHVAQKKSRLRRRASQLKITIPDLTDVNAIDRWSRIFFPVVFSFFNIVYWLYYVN
# T13 sequence (P18507 40-475 partner): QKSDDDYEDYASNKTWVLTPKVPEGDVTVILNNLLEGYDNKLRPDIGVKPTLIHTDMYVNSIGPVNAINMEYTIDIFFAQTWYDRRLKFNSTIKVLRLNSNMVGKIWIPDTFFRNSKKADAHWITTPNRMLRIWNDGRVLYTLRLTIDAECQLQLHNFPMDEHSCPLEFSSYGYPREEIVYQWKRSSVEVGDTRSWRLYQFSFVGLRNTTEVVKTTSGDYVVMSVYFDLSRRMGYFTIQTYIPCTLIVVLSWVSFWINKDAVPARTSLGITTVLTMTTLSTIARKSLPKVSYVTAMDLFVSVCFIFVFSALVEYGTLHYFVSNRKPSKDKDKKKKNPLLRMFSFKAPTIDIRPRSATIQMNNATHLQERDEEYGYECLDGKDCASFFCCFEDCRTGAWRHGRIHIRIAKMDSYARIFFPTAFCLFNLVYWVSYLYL
# T14 sequence (P31644 32-462): as the sequence (P31644 32-462) above
# T14 sequence (P28472 26-473): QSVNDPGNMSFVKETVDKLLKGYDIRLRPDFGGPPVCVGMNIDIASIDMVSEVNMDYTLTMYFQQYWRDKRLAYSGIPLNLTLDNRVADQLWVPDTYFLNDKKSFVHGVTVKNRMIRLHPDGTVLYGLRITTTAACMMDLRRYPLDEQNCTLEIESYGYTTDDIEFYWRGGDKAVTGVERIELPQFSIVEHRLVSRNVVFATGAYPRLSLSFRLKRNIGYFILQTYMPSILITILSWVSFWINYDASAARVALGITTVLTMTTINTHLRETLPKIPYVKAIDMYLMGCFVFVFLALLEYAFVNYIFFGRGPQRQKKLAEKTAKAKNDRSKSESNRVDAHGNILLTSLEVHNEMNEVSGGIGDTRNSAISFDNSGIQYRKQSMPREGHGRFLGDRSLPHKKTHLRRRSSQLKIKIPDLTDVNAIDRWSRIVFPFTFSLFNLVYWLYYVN
# T14 sequence (P18507 40-475 partner): as the sequence (P18507 40-475 partner) above
# T17 sequence (Q16445 20-453): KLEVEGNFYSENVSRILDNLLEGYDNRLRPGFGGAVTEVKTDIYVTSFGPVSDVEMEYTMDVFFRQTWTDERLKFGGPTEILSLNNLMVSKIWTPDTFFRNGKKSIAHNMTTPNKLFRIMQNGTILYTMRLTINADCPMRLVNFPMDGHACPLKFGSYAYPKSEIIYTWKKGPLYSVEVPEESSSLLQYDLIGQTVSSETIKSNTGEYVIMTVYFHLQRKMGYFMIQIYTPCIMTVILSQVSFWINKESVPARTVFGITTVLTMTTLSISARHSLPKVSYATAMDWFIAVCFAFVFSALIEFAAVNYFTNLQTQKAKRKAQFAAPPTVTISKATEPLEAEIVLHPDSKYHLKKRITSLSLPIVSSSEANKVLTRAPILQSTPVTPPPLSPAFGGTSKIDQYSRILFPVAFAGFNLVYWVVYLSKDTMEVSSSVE
# T17 sequence (P28472 26-473): as the sequence (P28472 26-473) above
# T17 sequence (P18507 40-475 partner): as the sequence (P18507 40-475 partner) above
# T2 sequence (P14867 28-456): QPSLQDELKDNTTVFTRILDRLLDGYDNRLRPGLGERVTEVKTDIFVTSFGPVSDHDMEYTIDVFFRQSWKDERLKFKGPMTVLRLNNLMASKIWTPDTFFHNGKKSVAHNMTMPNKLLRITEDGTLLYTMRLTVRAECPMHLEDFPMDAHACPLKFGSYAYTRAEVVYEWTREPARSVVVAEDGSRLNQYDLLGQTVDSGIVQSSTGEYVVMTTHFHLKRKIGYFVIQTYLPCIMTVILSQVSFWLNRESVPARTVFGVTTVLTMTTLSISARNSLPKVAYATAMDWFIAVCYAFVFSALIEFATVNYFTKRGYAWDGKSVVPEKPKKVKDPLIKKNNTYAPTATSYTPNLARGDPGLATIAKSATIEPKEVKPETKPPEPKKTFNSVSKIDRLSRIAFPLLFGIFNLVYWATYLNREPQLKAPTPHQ
# T2 sequence (P47870 25-512 limits assumed): as the sequence (P47870 25-512 limits assumed) above
# T2 sequence (P18507 40-475 partner): as the sequence (P18507 40-475 partner) above
# T18 sequence (P48169 36-554): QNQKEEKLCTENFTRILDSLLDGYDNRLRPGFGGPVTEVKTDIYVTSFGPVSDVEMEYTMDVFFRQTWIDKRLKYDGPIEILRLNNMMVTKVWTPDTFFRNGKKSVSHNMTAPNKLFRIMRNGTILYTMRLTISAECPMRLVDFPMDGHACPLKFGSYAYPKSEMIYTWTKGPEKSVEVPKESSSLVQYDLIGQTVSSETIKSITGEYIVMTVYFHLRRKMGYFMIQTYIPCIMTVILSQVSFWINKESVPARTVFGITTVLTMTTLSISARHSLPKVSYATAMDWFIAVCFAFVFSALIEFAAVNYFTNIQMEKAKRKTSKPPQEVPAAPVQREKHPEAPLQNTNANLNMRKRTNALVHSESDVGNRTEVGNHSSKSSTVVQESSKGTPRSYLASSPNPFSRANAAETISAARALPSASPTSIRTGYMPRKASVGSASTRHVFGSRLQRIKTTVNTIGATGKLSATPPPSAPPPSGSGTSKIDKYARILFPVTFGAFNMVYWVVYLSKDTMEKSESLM
# T18 sequence (P28472 26-473): as the sequence (P28472 26-473) above
# T18 sequence (O14764 25-452 partner): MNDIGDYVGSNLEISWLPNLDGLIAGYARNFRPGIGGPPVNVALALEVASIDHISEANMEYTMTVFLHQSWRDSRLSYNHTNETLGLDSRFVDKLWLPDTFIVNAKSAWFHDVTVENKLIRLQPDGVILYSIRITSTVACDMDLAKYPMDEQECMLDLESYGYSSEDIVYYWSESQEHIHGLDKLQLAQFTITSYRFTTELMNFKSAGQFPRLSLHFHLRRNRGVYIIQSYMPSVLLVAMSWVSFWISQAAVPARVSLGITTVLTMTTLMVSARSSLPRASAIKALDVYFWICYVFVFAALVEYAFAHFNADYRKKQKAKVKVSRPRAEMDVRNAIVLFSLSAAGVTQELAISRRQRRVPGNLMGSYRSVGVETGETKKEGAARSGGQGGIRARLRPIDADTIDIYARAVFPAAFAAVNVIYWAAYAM
# T5 sequence (P47869 29-451): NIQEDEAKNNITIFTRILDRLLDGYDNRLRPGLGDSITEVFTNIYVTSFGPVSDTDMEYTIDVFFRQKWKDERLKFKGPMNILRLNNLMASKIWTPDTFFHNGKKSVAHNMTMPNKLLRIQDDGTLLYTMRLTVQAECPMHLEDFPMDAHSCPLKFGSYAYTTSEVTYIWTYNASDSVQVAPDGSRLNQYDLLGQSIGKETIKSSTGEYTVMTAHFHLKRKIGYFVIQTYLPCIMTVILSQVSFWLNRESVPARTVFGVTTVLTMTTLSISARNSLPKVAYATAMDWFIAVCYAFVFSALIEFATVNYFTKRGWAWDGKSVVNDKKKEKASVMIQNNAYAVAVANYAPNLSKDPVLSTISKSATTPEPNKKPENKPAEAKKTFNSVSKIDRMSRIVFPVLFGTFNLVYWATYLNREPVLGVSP
# T5 sequence (P47870 25-512 limits assumed): as the sequence (P47870 25-512 limits assumed) above
# T5 sequence (P18507 40-475 partner): as the sequence (P18507 40-475 partner) above
# T6 sequence (P47869 29-451): as the sequence (P47869 29-451) above
# T6 sequence (P28472 26-473): as the sequence (P28472 26-473) above
# T6 sequence (P18507 40-475 partner): as the sequence (P18507 40-475 partner) above
# T16 sequence (Q16445 20-453): as the sequence (Q16445 20-453) above
# T16 sequence (P47870 25-512 limits assumed): as the sequence (P47870 25-512 limits assumed) above
# T16 sequence (P18507 40-475 partner): as the sequence (P18507 40-475 partner) above
# T3 sequence (P14867 28-456): as the sequence (P14867 28-456) above
# T3 sequence (P28472 26-473): as the sequence (P28472 26-473) above
# T3 sequence (P18507 40-475 partner): as the sequence (P18507 40-475 partner) above
structure (smiles),measurement,setting,value
"C[C@@]1(O)CC[C@@]2(C)[C@@H](CC[C@@H]3[C@@H]2CC[C@]2(C)[C@@H](C(=O)Cn4cc(C#N)cn4)CC[C@@H]32)C1 [CV-10155, 1-[2-[(3R,5S,8R,9S,10S,13S,14S,17S)-3-hydroxy-3,10,13-trimethyl-1,2,4,5,6,7,8,9,11,12,14,15,16,17-tetradecahydrocyclopenta[a]phenanthren-17-yl]-2-oxoethyl]pyrazole-4-carbonitrile]",EC50,[1],521 nM
same,EC50,[2],839 nM
same,EC50,[3],520 nM
same,EC50,[4],253 nM
same,EC50,[5],213 nM
same,EC50,[6],296 nM
same,EC50,[7],946 nM
same,EC50,[8],1820 nM
same,EC50,[9],273 nM
same,EC50,[10],204 nM
same,EC50,[11],1330 nM
same,EC50,[12],762 nM
same,EC50,[13],359 nM
same,EC50,[14],1300 nM
same,EC50,[15],359 nM
same,EC50,[16],1100 nM
same,EC50,[17],245 nM
same,modulating activity across GABAA receptor subtypes tested,[18],some level of positive allosteric modulating activity in all of the GABAA receptor subtypes tested
same,activity on α4β3δ versus α1β2γ2 GABAA receptors,[18]; comparison of Example 1 data,substantially more active on α4β3δ GABAA receptors than on α1β2γ2 GABAA receptors
same,EC50,[19],106 nM
C[C@@]1(O)CC[C@@]2(C)[C@H](CC[C@@H]3[C@@H]2CC[C@]2(C)[C@@H](C(=O)Cn4cc(C#N)cn4)CC[C@@H]32)C1 [Compound 10],IC50,[20],< 10 nM
C[C@@]1(O)CC[C@@]2(C)[C@@H](CC[C@@H]3[C@@H]2CC[C@]2(C)[C@@H](C(=O)Cn4ccc(C#N)n4)CC[C@@H]32)C1 [Compound 121],IC50,[20],10 to 50 nM
same,efficacy (relative potentiation of GABA-mediated conductance),[21],> 500%
same,efficacy (relative potentiation of GABA-mediated conductance),[22],> 500%
"C[C@]1(O)CC[C@@]2(C)[C@@H](CC[C@@H]3[C@@H]2CC[C@]2(C)[C@@H](C(=O)Cn4cc(C#N)cn4)CC[C@@H]32)C1 [SPNC-019, reference compound]",EC50,[13],1200 nM
same,EC50,[14],1810 nM
same,EC50,[17],1770 nM
same,modulating activity across GABAA receptor subtypes tested,[18],no modulating activity in 15 of the 18 GABAA receptor subtypes tested
